Measurements as given in PubChem BioAssay (NCI).
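Five compound concentrations were applied to cells in 96-well plates for 48 hours; endpoints were derived by simple linear interpolation of the resulting dose-response curve. The concentration for full growth arrest is given as TGI.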

Experiments:
Assay in all cases: NCI anticancer screen, dose series, 48 h
786-0 renal = tested on: 786-0 renal
A498 renal = tested on: A498 renal
A549 NSCLC = tested on: A549 NSCLC
ACHN renal = tested on: ACHN renal
BT-549 breast = tested on: BT-549 breast
CAKI-1 renal = tested on: CAKI-1 renal
CCRF-CEM leukemia = tested on: CCRF-CEM leukemia
COLO 205 colon = tested on: COLO 205 colon
DU-145 prostate = tested on: DU-145 prostate
EKVX NSCLC = tested on: EKVX NSCLC
HCC-2998 colon = tested on: HCC-2998 colon
HCT-116 colon = tested on: HCT-116 colon
HCT-15 colon = tested on: HCT-15 colon
HL-60(TB) leukemia = tested on: HL-60(TB) leukemia
HOP-62 NSCLC = tested on: HOP-62 NSCLC
HOP-92 NSCLC = tested on: HOP-92 NSCLC
HS 578T breast = tested on: HS 578T breast
HT29 colon = tested on: HT29 colon
IGROV1 ovarian = tested on: IGROV1 ovarian
K-562 leukemia = tested on: K-562 leukemia
KM12 colon = tested on: KM12 colon
LOX IMVI melanoma = tested on: LOX IMVI melanoma
M14 melanoma = tested on: M14 melanoma
MALME-3M melanoma = tested on: MALME-3M melanoma
MCF7 breast = tested on: MCF7 breast
MDA-MB-231 breast = tested on: MDA-MB-231 breast
MDA-MB-435 = tested on: MDA-MB-435
MDA-N = tested on: MDA-N
MOLT-4 leukemia = tested on: MOLT-4 leukemia
NCI-H226 lung = tested on: NCI-H226 lung
NCI-H23 lung = tested on: NCI-H23 lung
NCI-H460 lung = tested on: NCI-H460 lung
NCI-H522 lung = tested on: NCI-H522 lung
NCI/ADR-RES ovarian = tested on: NCI/ADR-RES ovarian
OVCAR-3 ovarian = tested on: OVCAR-3 ovarian
OVCAR-4 ovarian = tested on: OVCAR-4 ovarian
OVCAR-5 ovarian = tested on: OVCAR-5 ovarian
OVCAR-8 ovarian = tested on: OVCAR-8 ovarian
PC-3 prostate = tested on: PC-3 prostate
RPMI-8226 leukemia = tested on: RPMI-8226 leukemia
RXF 393 renal = tested on: RXF 393 renal
SF-268 CNS = tested on: SF-268 CNS
SF-295 CNS = tested on: SF-295 CNS
SF-539 CNS = tested on: SF-539 CNS
SK-MEL-2 melanoma = tested on: SK-MEL-2 melanoma
SK-MEL-28 melanoma = tested on: SK-MEL-28 melanoma
SK-MEL-5 melanoma = tested on: SK-MEL-5 melanoma
SK-OV-3 ovarian = tested on: SK-OV-3 ovarian
SN12C renal = tested on: SN12C renal
SNB-19 CNS = tested on: SNB-19 CNS
SNB-75 CNS = tested on: SNB-75 CNS
SR leukemia = tested on: SR leukemia
SW-620 colon = tested on: SW-620 colon
T-47D breast = tested on: T-47D breast
TK-10 renal = tested on: TK-10 renal
U251 CNS = tested on: U251 CNS
UACC-257 melanoma = tested on: UACC-257 melanoma
UACC-62 melanoma = tested on: UACC-62 melanoma
UO-31 renal = tested on: UO-31 renal

## O=C1c2c(ccc3c2CCCC3)CC12Cc1ccccc1C2
786-0 renal
  TGI: > 100 µM
A498 renal
  TGI: 77.5 µM
A549 NSCLC
  TGI: > 92.6 µM
ACHN renal
  TGI: 97.1 µM
BT-549 breast
  TGI: > 100 µM
CAKI-1 renal
  TGI: > 77.7 µM
CCRF-CEM leukemia
  TGI: 27 µM
COLO 205 colon
  TGI: 65.2 µM
DU-145 prostate
  TGI: > 100 µM
EKVX NSCLC
  TGI: > 95.9 µM
HCC-2998 colon
  TGI: > 74.8 µM
HCT-116 colon
  TGI: 26.1 µM
HCT-15 colon
  TGI: > 49.8 µM
HL-60(TB) leukemia
  TGI: 38.8 µM
HOP-62 NSCLC
  TGI: > 100 µM
HOP-92 NSCLC
  TGI: 51.7 µM
HS 578T breast
  TGI: > 100 µM
HT29 colon
  TGI: > 57.1 µM
IGROV1 ovarian
  TGI: > 100 µM
K-562 leukemia
  TGI: > 48.2 µM
KM12 colon
  TGI: 59.9 µM
LOX IMVI melanoma
  TGI: 29.4 µM
M14 melanoma
  TGI: > 100 µM
MALME-3M melanoma
  TGI: 34.9 µM
MCF7 breast
  TGI: > 76.6 µM
MDA-MB-231 breast
  TGI: 52.7 µM
MDA-MB-435
  TGI: > 100 µM
MDA-N
  TGI: > 100 µM
MOLT-4 leukemia
  TGI: > 35.4 µM
NCI-H226 lung
  TGI: 71.7 µM
NCI-H23 lung
  TGI: > 96.2 µM
NCI-H460 lung
  TGI: > 47.1 µM
NCI-H522 lung
  TGI: 56.7 µM
NCI/ADR-RES ovarian
  TGI: > 100 µM
OVCAR-3 ovarian
  TGI: 48.9 µM
OVCAR-4 ovarian
  TGI: > 100 µM
OVCAR-5 ovarian
  TGI: > 67.6 µM
OVCAR-8 ovarian
  TGI: > 100 µM
PC-3 prostate
  TGI: > 100 µM
RPMI-8226 leukemia
  TGI: 45.5 µM
RXF 393 renal
  TGI: 46.2 µM
SF-268 CNS
  TGI: > 100 µM
SF-295 CNS
  TGI: > 100 µM
SF-539 CNS
  TGI: > 75.3 µM
SK-MEL-2 melanoma
  TGI: 39.6 µM
SK-MEL-28 melanoma
  TGI: > 80.4 µM
SK-MEL-5 melanoma
  TGI: 22.3 µM
SK-OV-3 ovarian
  TGI: > 100 µM
SN12C renal
  TGI: > 100 µM
SNB-19 CNS
  TGI: > 100 µM
SNB-75 CNS
  TGI: > 100 µM
SR leukemia
  TGI: > 27.6 µM
SW-620 colon
  TGI: > 100 µM
T-47D breast
  TGI: > 100 µM
TK-10 renal
  TGI: > 100 µM
U251 CNS
  TGI: > 100 µM
UACC-257 melanoma
  TGI: 54 µM
UACC-62 melanoma
  TGI: > 100 µM
UO-31 renal
  TGI: 68.5 µM

## CC(C)NC(=O)OCc1c(COC(=O)NC(C)C)c(-c2ccc[n+](COC(=O)C3CCCCC3)c2)n2c1CCC2
786-0 renal
  TGI: > 100 µM
A498 renal
  TGI: 87.5 µM
A549 NSCLC
  TGI: > 100 µM
ACHN renal
  TGI: > 100 µM
BT-549 breast
  TGI: > 100 µM
CAKI-1 renal
  TGI: 68.6 µM
CCRF-CEM leukemia
  TGI: > 100 µM
COLO 205 colon
  TGI: > 100 µM
DU-145 prostate
  TGI: > 100 µM
EKVX NSCLC
  TGI: > 100 µM
HCC-2998 colon
  TGI: > 100 µM
HCT-116 colon
  TGI: > 100 µM
HCT-15 colon
  TGI: > 100 µM
HL-60(TB) leukemia
  TGI: > 100 µM
HOP-62 NSCLC
  TGI: > 100 µM
HOP-92 NSCLC
  TGI: > 100 µM
HS 578T breast
  TGI: > 100 µM
HT29 colon
  TGI: > 100 µM
IGROV1 ovarian
  TGI: > 100 µM
K-562 leukemia
  TGI: > 100 µM
KM12 colon
  TGI: > 100 µM
LOX IMVI melanoma
  TGI: > 100 µM
M14 melanoma
  TGI: > 100 µM
MALME-3M melanoma
  TGI: > 100 µM
MCF7 breast
  TGI: > 100 µM
MDA-MB-231 breast
  TGI: > 100 µM
MDA-MB-435
  TGI: > 100 µM
MDA-N
  TGI: > 100 µM
MOLT-4 leukemia
  TGI: > 100 µM
NCI-H226 lung
  TGI: > 100 µM
NCI-H23 lung
  TGI: > 100 µM
NCI-H460 lung
  TGI: > 100 µM
NCI-H522 lung
  TGI: 58 µM
NCI/ADR-RES ovarian
  TGI: > 100 µM
OVCAR-3 ovarian
  TGI: > 100 µM
OVCAR-4 ovarian
  TGI: > 100 µM
OVCAR-5 ovarian
  TGI: > 100 µM
OVCAR-8 ovarian
  TGI: > 100 µM
PC-3 prostate
  TGI: > 100 µM
RPMI-8226 leukemia
  TGI: > 100 µM
RXF 393 renal
  TGI: > 100 µM
SF-268 CNS
  TGI: > 100 µM
SF-295 CNS
  TGI: > 100 µM
SF-539 CNS
  TGI: > 100 µM
SK-MEL-2 melanoma
  TGI: > 100 µM
SK-MEL-28 melanoma
  TGI: > 100 µM
SK-MEL-5 melanoma
  TGI: > 100 µM
SK-OV-3 ovarian
  TGI: > 100 µM
SN12C renal
  TGI: > 100 µM
SNB-19 CNS
  TGI: > 100 µM
SNB-75 CNS
  TGI: > 100 µM
SR leukemia
  TGI: > 100 µM
SW-620 colon
  TGI: > 100 µM
T-47D breast
  TGI: > 100 µM
TK-10 renal
  TGI: > 100 µM
U251 CNS
  TGI: > 100 µM
UACC-257 melanoma
  TGI: > 100 µM
UACC-62 melanoma
  TGI: 87.4 µM
UO-31 renal
  TGI: > 100 µM
